Test results as given in US9676721B2, “Compounds and compositions for the inhibition of NAMPT” (FORMA TM, LLC, priority 2010, dated 2017).

Columns and labels:
A2780 cells = test: In-Vitro Cell Proliferation Assay (SRB); format: cell-based; settings: Homo sapiens, A2780, 72 h
Experimental: In-Vitro Cell Proliferation Assay […] After overnight incubation at 37° C. and 5% CO2, the compound titrations were performed in a separate dilution plate by serially diluting the compounds in DMSO to make a 1000× stock. The compounds were then further diluted to 10× final concentration in culture media, whereupon 20 μL of each dilution was added to the plated cells with controls (e.g. DMSO and blank) to make a final volume of 200 μL. The final DMSO concentration in each well was 0.1%. The plates were then incubated for 72 hours at 37° C. in a 5% CO2 incubator. The number of viable cells was then assessed using sulforhodamine B (SRB) assay. Cells were fixed at 4° C. for 1 hour with the addition of 50 μL 30% trichloroacetic acid (TCA) to make a final concentration of 6% TCA. The plates were washed four times with H2O and allowed to dry for at least 1 hour, whereupon 100 μL of a […] SRB in 1% acetic acid solution was added to each well and incubated at room temperature for at least 30 minutes. The plates were then washed three times with 1% acetic acid, dried, and treated with 100 μL of 10 mM Tris-Base solution. The plates were then read in a microplate reader at an absorbance of 570 nm. Background was generated on a separate plate with media only. Method for Determining % Inhibition First, the signals from the background plate are averaged, then the background was subtracted from the test plates. […] Formula for Determining IC50 Values: […] Specificity of Cytotoxicity. Inhibition of NAMPT could be reversed by the addition of NAM or NMN. The specificity of the compounds were determined via cell viability assay in the presence of the compound and either NAM or NMN. Percent inhibitions were determined using the method given above.

NAMPT = NAMPT (Homo sapiens (Human), UniProt P43490); test: Biochemical Inhibition Assay (NAMPT enzymatic reaction, NMN by mass spectrometry); settings: recombinant His-tagged NAMPT 33 nM, 1 μM NAM, 30 minutes; read-out: Biochem IC50
Experimental: Biochemical Inhibition Assay NAMPT Protein Purification Recombinant His-tagged NAMPT was produced in E. coli cells, purified over a Ni column, and further purified over a size-exclusion column by XTAL Biostructures. The NAMPT Enzymatic Reaction The NAMPT enzymatic reactions were carried out in Buffer A (50 mM Hepes pH 7.5, 50 mM NaCl, 5 mM MgCl2, and 1 mM THP) in 96-well V-bottom plates. The compound titrations were performed in a separate dilution plate by serially diluting the compounds in DMSO to make a 100× stock. […] Background and signal strength was determined by addition (or non-addition) of a serial dilution of NMN to a pre-quenched enzyme and cofactor mix. Quantification of NMN A mass spectrometry-based assay was used to measure the NAMPT reaction product (NMN) and the internal control (L-Cystathionine). NMN and L-Cystathionine were detected using the services of Biocius Lifesciences with the RapidFire system. In short, the NMN and L-Cystathionine are bound to a graphitic carbon cartridge in 0.1% formic acid, eluted in 30% acetonitrile buffer, and injected into a Sciex 4000 mass spectrometer. The components of the sample were ionized with electrospray ionization and the positive ions were detected. […] The fragments are quantified and the analyzed by the following method. % Inhibitions are Determined Using this Method. First the NMN signal is normalized to the L-Cystathionine signal by dividing the NMN signal by the L-Cystathionine signal for each well. The signal from the background wells are averaged and subtracted from the test plates. […] IC50s are Determined Using Excel and this Formula.

Sequence of NAMPT (P43490 whole entry): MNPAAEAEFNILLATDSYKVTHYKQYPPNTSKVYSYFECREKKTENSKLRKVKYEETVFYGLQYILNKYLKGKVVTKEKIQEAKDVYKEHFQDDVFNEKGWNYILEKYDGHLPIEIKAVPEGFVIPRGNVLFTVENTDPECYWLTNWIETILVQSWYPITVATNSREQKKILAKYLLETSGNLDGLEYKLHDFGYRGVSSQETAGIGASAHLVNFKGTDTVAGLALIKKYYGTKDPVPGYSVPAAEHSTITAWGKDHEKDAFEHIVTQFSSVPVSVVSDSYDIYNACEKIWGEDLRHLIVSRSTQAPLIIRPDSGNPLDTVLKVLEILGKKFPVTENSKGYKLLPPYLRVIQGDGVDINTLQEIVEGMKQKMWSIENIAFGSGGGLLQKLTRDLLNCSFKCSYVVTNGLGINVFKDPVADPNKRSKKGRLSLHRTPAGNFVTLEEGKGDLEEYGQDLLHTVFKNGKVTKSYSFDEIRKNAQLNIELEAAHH

Row | IC50 (A2780 cells) [nM] | IC50 (NAMPT) [nM] | Compound
1 | 3.9 | 7.2 | COc1ccccc1S(=O)(=O)c1ccc(CNC(=NC#N)Nc2ccncc2)cc1 [2-cyano-1-({4-[(2-methoxybenzene)sulfonyl]phenyl}methyl)-3-(pyridin-4-yl)guanidine]
2 | 5.6 | 7.9 | Cc1ccccc1S(=O)(=O)c1ccc(CNC(=NC#N)Nc2ccncc2)cc1 [2-cyano-1-({4-[(2-methylbenzene)sulfonyl]phenyl}methyl)-3-(pyridin-4-yl)guanidine]
3 | 1 | 1.7 | N#CN=C(NCc1ccc(S(=O)(=O)c2ccc(Cl)c(Cl)c2)cc1)Nc1ccncc1 [2-cyano-1-({4-[(3,4-dichlorobenzene)sulfonyl]phenyl}methyl)-3-(pyridin-4-yl)guanidine]
4 | 2.5 | 0.8 | N#CN=C(NCc1ccc(S(=O)(=O)c2ccc(F)c(F)c2)cc1)Nc1ccncc1 [2-cyano-1-({4-[(3,4-difluorobenzene)sulfonyl]phenyl}methyl)-3-(pyridin-4-yl)guanidine]
5 | 3.4 | 4 | COc1ccc(S(=O)(=O)c2ccc(CNC(=NC#N)Nc3ccncc3)cc2)cc1OC [2-cyano-1-({4-[(3,4-dimethoxybenzene)sulfonyl]phenyl}methyl)-3-(pyridin-4-yl)guanidine]
6 | 1.2 | 2.2 | Cc1ccc(S(=O)(=O)c2ccc(CNC(=NC#N)Nc3ccncc3)cc2)cc1C [2-cyano-1-({4-[(3,4-dimethylbenzene)sulfonyl]phenyl}methyl)-3-(pyridin-4-yl)guanidine]
7 | 1.6 | 11.2 | N#CN=C(NCc1ccc(S(=O)(=O)c2cc(Cl)cc(Cl)c2)cc1)Nc1ccncc1 [2-cyano-1-({4-[(3,5-dichlorobenzene)sulfonyl]phenyl}methyl)-3-(pyridin-4-yl)guanidine]
8 | 2 | 1 | N#CN=C(NCc1ccc(S(=O)(=O)c2cc(F)cc(F)c2)cc1)Nc1ccncc1 [2-cyano-1-({4-[(3,5-difluorobenzene)sulfonyl]phenyl}methyl)-3-(pyridin-4-yl)guanidine]
9 | 1.6 | 3.3 | Cc1cc(C)cc(S(=O)(=O)c2ccc(CNC(=NC#N)Nc3ccncc3)cc2)c1 [2-cyano-1-({4-[(3,5-dimethylbenzene)sulfonyl]phenyl}methyl)-3-(pyridin-4-yl)guanidine]
10 | 6.2 | 1.7 | N#CN=C(NCc1ccc(S(=O)(=O)c2cccc(C#N)c2)cc1)Nc1ccncc1 [2-cyano-1-({4-[(3-cyanobenzene)sulfonyl]phenyl}methyl)-3-(pyridin-4-yl)guanidine]
11 | 6.5 | 4.3 | CCOc1cccc(S(=O)(=O)c2ccc(CNC(=NC#N)Nc3ccncc3)cc2)c1 [2-cyano-1-({4-[(3-ethoxybenzene)sulfonyl]phenyl}methyl)-3-(pyridin-4-yl)guanidine]
12 | 2 | 1 | COc1ccc(S(=O)(=O)c2ccc(CNC(=NC#N)Nc3ccncc3)cc2)cc1F [2-cyano-1-({4-[(3-fluoro-4-methoxybenzene)sulfonyl]phenyl}methyl)-3-(pyridin-4-yl)guanidine]
13 | 6.2 | 14.8 | Cc1ccc(S(=O)(=O)c2ccc(CNC(=NC#N)Nc3ccncc3)cc2)cc1F [2-cyano-1-({4-[(3-fluoro-4-methylbenzene)sulfonyl]phenyl}methyl)-3-(pyridin-4-yl)guanidine]
14 | 2.1 | 2.3 | COc1cc(F)cc(S(=O)(=O)c2ccc(CNC(=NC#N)Nc3ccncc3)cc2)c1 [2-cyano-1-({4-[(3-fluoro-5-methoxybenzene)sulfonyl]phenyl}methyl)-3-(pyridin-4-yl)guanidine]
15 | 3.3 | 1.7 | Cc1cc(F)cc(S(=O)(=O)c2ccc(CN/C(=N\C#N)Nc3ccncc3)cc2)c1 [2-cyano-1-({4-[(3-fluoro-5-methylbenzene)sulfonyl]phenyl}methyl)-3-(pyridin-4-yl)guanidine]
16 | 14.5 | 3.2 | N#CN=C(NCc1ccc(S(=O)(=O)c2cccc(F)c2)cc1)Nc1ccncc1 [2-cyano-1-({4-[(3-fluorobenzene)sulfonyl]phenyl}methyl)-3-(pyridin-4-yl)guanidine]
17 | 0.8 | 1.2 | COc1cc(S(=O)(=O)c2ccc(CNC(=NC#N)Nc3ccncc3)cc2)ccc1C [2-cyano-1-({4-[(3-methoxy-4-methylbenzene)sulfonyl]phenyl}methyl)-3-(pyridin-4-yl)guanidine]
18 | 3.4 | 1.5 | COc1cccc(S(=O)(=O)c2ccc(CNC(=NC#N)Nc3ccncc3)cc2)c1 [2-cyano-1-({4-[(3-methoxybenzene)sulfonyl]phenyl}methyl)-3-(pyridin-4-yl)guanidine]
19 | 4.6 | 5.2 | Cc1cccc(S(=O)(=O)c2ccc(CNC(=NC#N)Nc3ccncc3)cc2)c1 [2-cyano-1-({4-[(3-methylbenzene)sulfonyl]phenyl}methyl)-3-(pyridin-4-yl)guanidine]
20 | 13.7 | 5.9 | N#CN=C(NCc1ccc(S(=O)(=O)c2ccc(C#N)cc2)cc1)Nc1ccncc1 [2-cyano-1-({4-[(4-cyanobenzene)sulfonyl]phenyl}methyl)-3-(pyridin-4-yl)guanidine]
21 | 3.2 | 6 | CCOc1ccc(S(=O)(=O)c2ccc(CNC(=NC#N)Nc3ccncc3)cc2)cc1F [2-cyano-1-({4-[(4-ethoxy-3-fluorobenzene)sulfonyl]phenyl}methyl)-3-(pyridin-4-yl)guanidine]
22 | 3.3 | 5.6 | CCOc1ccc(S(=O)(=O)c2ccc(CNC(=NC#N)Nc3ccncc3)cc2)cc1 [2-cyano-1-({4-[(4-ethoxybenzene)sulfonyl]phenyl}methyl)-3-(pyridin-4-yl)guanidine]
23 | 5.4 | 5.4 | Cc1cc(F)ccc1S(=O)(=O)c1ccc(CNC(=NC#N)Nc2ccncc2)cc1 [2-cyano-1-({4-[(4-fluoro-2-methylbenzene)sulfonyl]phenyl}methyl)-3-(pyridin-4-yl)guanidine]
24 | 3.9 | 3.1 | Cc1cc(S(=O)(=O)c2ccc(CNC(=NC#N)Nc3ccncc3)cc2)ccc1F [2-cyano-1-({4-[(4-fluoro-3-methylbenzene)sulfonyl]phenyl}methyl)-3-(pyridin-4-yl)guanidine]
25 | 13.1 | 4.5 | CS(=O)(=O)c1ccc(S(=O)(=O)c2ccc(CNC(=NC#N)Nc3ccncc3)cc2)cc1 [2-cyano-1-({4-[(4-methanesulfonylbenzene)sulfonyl]phenyl}methyl)-3-(pyridin-4-yl)guanidine]
26 | 15 | 20.4 | COc1ccc(S(=O)(=O)c2ccc(CNC(=NC#N)Nc3ccncc3)cc2)cc1C [2-cyano-1-({4-[(4-methoxy-3-methylbenzene)sulfonyl]phenyl}methyl)-3-(pyridin-4-yl)guanidine]
27 | 10 | 6.5 | COc1ccc(S(=O)(=O)c2ccc(CN/C(=N\C#N)Nc3ccncc3)cc2)cc1 [2-cyano-1-({4-[(4-methoxybenzene)sulfonyl]phenyl}methyl)-3-(pyridin-4-yl)guanidine]
28 | 2.6 | 2.5 | Cc1ccc(S(=O)(=O)c2ccc(CN/C(=N\C#N)Nc3ccncc3)cc2)cc1 [2-cyano-1-({4-[(4-methylbenzene)sulfonyl]phenyl}methyl)-3-(pyridin-4-yl)guanidine]
29 | 3.3 | 4.5 | Cc1ccc(F)cc1S(=O)(=O)c1ccc(CNC(=NC#N)Nc2ccncc2)cc1 [2-cyano-1-({4-[(5-fluoro-2-methylbenzene)sulfonyl]phenyl}methyl)-3-(pyridin-4-yl)guanidine]
30 | 7.5 | 11.7 | N#CN=C(NCc1ccc(S(=O)(=O)c2ccccc2CN2CCOCC2)cc1)Nc1ccncc1 [2-cyano-1-[(4-{[2-(morpholin-4-ylmethyl)benzene]sulfonyl}phenyl)methyl]-3-(pyridin-4-yl)guanidine]
